Source: patent publication US20250215029A1 (Recludix Pharma, Inc., priority 2022, published 2025)
Like-named read-outs stand apart in the source and are kept apart here.

Target: T1, pY641-STAT6 in PBMC (Homo sapiens, UniProt P42226)
T1 construct: Cryopreserved Peripheral Blood Mononuclear Cells (PBMC) are from AllCells; host or cells: cryopreserved PBMC
T1 sequence (P42226 1-847): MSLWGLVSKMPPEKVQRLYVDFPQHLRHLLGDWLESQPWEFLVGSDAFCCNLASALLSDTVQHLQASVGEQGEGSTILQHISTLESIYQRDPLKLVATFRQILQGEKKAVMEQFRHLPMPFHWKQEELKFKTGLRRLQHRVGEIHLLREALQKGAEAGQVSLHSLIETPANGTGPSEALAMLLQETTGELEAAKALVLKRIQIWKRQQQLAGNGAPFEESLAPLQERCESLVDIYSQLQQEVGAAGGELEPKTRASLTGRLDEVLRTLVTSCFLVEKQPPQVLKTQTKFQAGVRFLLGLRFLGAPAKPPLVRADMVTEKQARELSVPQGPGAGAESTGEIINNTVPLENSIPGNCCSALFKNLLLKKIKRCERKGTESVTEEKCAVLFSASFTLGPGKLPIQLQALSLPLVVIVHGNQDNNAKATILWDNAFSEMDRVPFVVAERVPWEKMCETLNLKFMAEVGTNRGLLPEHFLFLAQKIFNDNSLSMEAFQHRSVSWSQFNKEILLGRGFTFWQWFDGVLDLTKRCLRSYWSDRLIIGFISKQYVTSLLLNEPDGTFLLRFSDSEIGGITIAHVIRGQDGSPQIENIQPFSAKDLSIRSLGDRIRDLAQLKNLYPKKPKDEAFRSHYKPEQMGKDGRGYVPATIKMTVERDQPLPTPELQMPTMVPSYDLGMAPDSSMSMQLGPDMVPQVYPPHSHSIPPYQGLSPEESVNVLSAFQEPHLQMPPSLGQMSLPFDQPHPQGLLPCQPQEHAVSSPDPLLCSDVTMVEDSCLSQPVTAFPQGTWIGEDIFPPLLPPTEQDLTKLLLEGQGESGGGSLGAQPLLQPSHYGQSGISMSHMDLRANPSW
Assay: MSD-pSTAT-PBMC Assay (pSTAT6, IL-4 stimulated)
Type: cell-based
Conditions: compound 3 hrs, then 1 ng/mL IL-4 for 10 min, Table 115
Excerpt: Cryopreserved Peripheral Blood Mononuclear Cells (PBMC) are from AllCells. Recombinant Human IL-4 and IL-6 are from Peprotech. Mouse monoclonal anti-STAT3 antibody, rabbit monoclonal anti-pY705-STAT3 antibody, rabbit monoclonal Anti-pY641-STAT6 antibody, and lysis buffer are from Cell Signaling Technology (CST). Mouse monoclonal anti-STAT6 antibody is from BioLegend. Assay plates, blocker, and anti-rabbit secondary antibody are from Meso Scale Discovery (MSD).
Cyropreserved PBMCs were thawed out and allowed to recover overnight in IMDM+10% heat-inactivated FBS prior to plating 50,000 (STAT3) or 25,000 (STAT6) cells per well in 96-well U-bottom tissue culture plates. Cells were treated with compound for 3 hrs, then stimulated with 10 ng/mL IL-6 (STAT3) or 1 ng/mL IL-4 (STAT6) for 10 min. Cells were then spun down and washed with ice-cold PBS prior to lysing the cell pellet with 1× lysis buffer (CST) with 1× HALT protease and phosphatase inhibitor cocktail (Thermo). Lysates were transferred to and incubated overnight at 4° C. with shaking in QuickPlex 96-well high bind assay plates (MSD) pre-coated overnight with 30 μL per well of 0.6 μg/mL mouse monoclonal anti-STAT3 antibody (STAT3) or 2 μg/mL mouse monoclonal anti-STAT6 antibody (STAT6) in 1× PBS, and pre-blocked for 1 hour with 3% Blocker-A (MSD). Captured protein in the assay plates were then washed and probed with 25 μL per well of […] rabbit monoclonal anti-pY705-STAT3 antibody (STAT3) or 0.18 μg/ml rabbit monoclonal Anti-pY641-STAT6 antibody (STAT6) in 1% Blocker-A for 1 hour at room temperature with shaking, then washed and probed with 25 ul per well of 1 ug/ml Sulfo-TAG Labeled Goat Anti-Rabbit Antibody (MSD) in 1% Blocker-A for 1 hour at room temperature with shaking. Assay plates were then washed and 150 μL of 1× Read Buffer-T (MSD) was added to each well prior to reading on an SQ120 MSD Plate Reader. Assay signal from each sample was subtracted by the signal from unstimulated control wells and normalized to DMSO control wells. IC50 values were calculated using Graph Pad Prism Dose-Response Nonlinear Regression with variable slope. For both pSTAT3 and pSTAT6 A=≤100 nM; B 100-1000 nM; C=>1000-3000 nM; D=>3 μM; and NT=Not Tested.

Q: With `CCCOC(=O)[C@H](C)NP(=O)(Oc1ccccc1)[C@@H](F)c1ccc2sc(C(=O)N[C@H]3CCCC[C@H]4CC[C@@H](C(=O)N5C[C@H](c6cccc(OC)c6)[C@@H](C#N)C56CC6)N4C3=O)cc2c1` (single isomer, unassigned) [Compound 336] as the compound, how does the IC50 (read-out: STAT6, PBMC) read?
A: < 100 nM

Q: How did the IC50 (STAT6, PBMC) turn out when `CCCOC(=O)[C@H](C)NP(=O)(Oc1ccccc1)[C@@H](F)c1ccc2sc(C(=O)N[C@H]3CCCC[C@H]4CC[C@@H](C(=O)N5C[C@H](c6cccc(C#N)c6)[C@@H](C#N)C56CC6)N4C3=O)cc2c1` (single isomer, unassigned) [Compound 339] was run?
A: < 100 nM

Q: Which IC50 (read-out: STAT6, PBMC) does the source give for `CCCOC(=O)[C@H](C)NP(=O)(Oc1ccccc1)[C@@H](F)c1ccc2sc(C(=O)N[C@H]3CCCC[C@H]4CC[C@@H](C(=O)N5C[C@H](c6cccc(C#N)c6)[C@@H](C#N)C56CC6)N4C3=O)cc2c1` (single isomer, unassigned) [Compound 340] here?
A: < 100 nM

Q: With `CCCOC(=O)[C@H](C)NP(=O)(Oc1ccccc1)[C@@H](F)c1ccc2sc(C(=O)N[C@H]3CCC[C@H]4CC[C@@H](C(=O)N5C[C@@H](c6cccc(C)c6)[C@H](C#N)C56CC6)N4C3=O)cc2c1` (single isomer, unassigned) [Compound 341] as the compound, how does the IC50 (STAT6, PBMC) read?
A: < 100 nM

Q: With `CCCOC(=O)[C@H](C)NP(=O)(Oc1ccccc1)[C@@H](F)c1ccc2sc(C(=O)N[C@H]3CCC[C@H]4CC[C@@H](C(=O)N5C[C@@H](c6cccc(C)c6)[C@H](C#N)C56CC6)N4C3=O)cc2c1` (single isomer, unassigned) [Compound 342] as the compound, how does the IC50 (read-out: STAT6, PBMC) read?
A: < 100 nM

Q: Which IC50 (STAT6, PBMC) does the source give for `CCCOC(=O)[C@H](C)NP(=O)(Oc1ccccc1)[C@H](F)c1ccc2sc(C(=O)N[C@H]3CCC[C@H]4CC[C@@H](C(=O)N5C[C@@H](c6cccnc6)[C@H](C#N)C56CC6)N4C3=O)cc2c1` (single isomer, unassigned) [Compound 355] here?
A: < 100 nM

Q: With `CCCOC(=O)[C@H](C)NP(=O)(Oc1ccccc1)[C@@H](F)c1ccc2sc(C(=O)N[C@H]3CCC[C@H]4CC[C@@H](C(=O)N5C[C@H](c6cccnc6)[C@@H](C#N)C56CC6)N4C3=O)cc2c1` (single isomer, unassigned) [Compound 362] as the compound, how does the IC50 (STAT6, PBMC) read?
A: < 100 nM

Q: `CCCOC(=O)[C@H](C)NP(=O)(Oc1ccccc1)[C@@H](F)c1ccc2sc(C(=O)N[C@H]3CCC[C@H]4CC[C@@H](C(=O)N5C[C@H](c6cccnc6)[C@@H](C#N)C56CC6)N4C3=O)cc2c1` (single isomer, unassigned) [Compound 363] was tested. Which IC50 (read-out: STAT6, PBMC) did it give?
A: < 100 nM

Q: Which IC50 (STAT6, PBMC) does the source give for `CCCOC(=O)[C@H](C)NP(=O)(Oc1ccccc1)[C@@H](F)c1ccc2sc(C(=O)N[C@H]3CCC[C@H]4CC[C@@H](C(=O)N5C[C@H](c6cncc(Cl)c6)[C@@H](C#N)C56CC6)N4C3=O)cc2c1` (single isomer, unassigned) [Compound 367] here?
A: 100 to 1000 nM

Q: Which IC50 (STAT6, PBMC) does the source give for `CCCOC(=O)[C@H](C)NP(=O)(Oc1ccccc1)[C@@H](F)c1ccc2sc(C(=O)N[C@H]3CCC[C@H]4CC[C@@H](C(=O)N5C[C@H](c6cncc(Cl)c6)[C@@H](C#N)C56CC6)N4C3=O)cc2c1` (single isomer, unassigned) [Compound 368] here?
A: > 3000 nM

Q: With `CCCOC(=O)[C@H](C)NP(=O)(Oc1ccccc1)[C@@H](F)c1ccc2sc(C(=O)N[C@H]3CCC[C@H]4CC[C@@H](C(=O)N5C[C@H](c6cncc(OC)c6)[C@@H](C#N)C56CC6)N4C3=O)cc2c1` (single isomer, unassigned) [Compound 369] as the compound, how does the IC50 (STAT6, PBMC) read?
A: 1000 to 3000 nM

Q: `CCCOC(=O)[C@H](C)NP(=O)(Oc1ccccc1)[C@@H](F)c1ccc2sc(C(=O)N[C@H]3CCCC[C@H]4CC[C@@H](C(=O)N5C[C@H](c6cncc(Cl)c6)[C@@H](C#N)C56CC6)N4C3=O)cc2c1` (single isomer, unassigned) [Compound 370] was tested. Which IC50 (STAT6, PBMC) did it give?
A: < 100 nM

Q: For `CCCOC(=O)[C@H](C)NP(=O)(Oc1ccccc1)[C@@H](F)c1ccc2sc(C(=O)N[C@H]3CCCC[C@H]4CC[C@@H](C(=O)N5C[C@H](c6cncc(Cl)c6)[C@@H](C#N)C56CC6)N4C3=O)cc2c1` (single isomer, unassigned) [Compound 371], which IC50 (STAT6, PBMC) is on record?
A: 1000 to 3000 nM

Q: `CCCOC(=O)[C@H](C)NP(=O)(Oc1ccccc1)[C@@H](F)c1ccc2sc(C(=O)N[C@H]3CCCC[C@H]4CC[C@@H](C(=O)N5C[C@H](c6cncc(OC)c6)[C@@H](C#N)C56CC6)N4C3=O)cc2c1` (single isomer, unassigned) [Compound 372] was tested. Which IC50 (STAT6, PBMC) did it give?
A: > 3000 nM

Q: Which IC50 (STAT6, PBMC) does the source give for `CCCOC(=O)[C@H](C)NP(=O)(Oc1ccccc1)C(C)c1ccc2ccc(C(=O)N[C@H]3CCCC[C@H]4CC[C@@H](C(=O)N5C[C@@H](c6ccccc6)CC56CC6)N4C3=O)cc2c1` (single isomer, unassigned) [Compound 425] here?
A: > 3000 nM

Q: Which IC50 (STAT6, PBMC) does the source give for `CCCOC(=O)[C@H](C)N[P@@](=O)(Oc1ccccc1)[C@@H](F)c1ccc2sc(C(=O)N[C@H]3CCCC[C@H]4CC[C@@H](C(=O)N5C[C@@H](c6cccnc6)CC56CC6)N4C3=O)cc2c1` (single isomer, unassigned) [Compound 461] here?
A: < 100 nM

Q: With `CCCOC(=O)[C@H](C)NP(=O)(Oc1ccccc1)[C@@H](F)c1ccc2sc(C(=O)N[C@H]3CCC[C@H]4CC[C@@H](C(=O)N5C[C@H](c6ccc(C)cc6)[C@@H](C#N)C56CC6)N4C3=O)cc2c1` (single isomer, unassigned) [Compound 478] as the compound, how does the IC50 (STAT6, PBMC) read?
A: < 100 nM

Q: With `CCCOC(=O)[C@H](C)NP(=O)(Oc1ccccc1)[C@@H](F)c1ccc2sc(C(=O)N[C@H]3CCCC[C@H]4CC[C@@H](C(=O)N5C[C@@H](c6cccc(C(F)F)c6)[C@H](C#N)C56CC6)N4C3=O)cc2c1` (single isomer, unassigned) [Compound 482] as the compound, how does the IC50 (STAT6, PBMC) read?
A: < 100 nM

Q: Which IC50 (read-out: STAT6, PBMC) does the source give for `CCCOC(=O)[C@H](C)NP(=O)(Oc1ccccc1)[C@@H](F)c1ccc2sc(C(=O)N[C@H]3CCCC[C@H]4CC[C@@H](C(=O)N5C[C@@H](c6cccc(C(F)F)c6)[C@H](C#N)C56CC6)N4C3=O)cc2c1` (single isomer, unassigned) [Compound 483] here?
A: < 100 nM

Q: For `CC(C)OC(=O)OCOP(=O)(OCCSC(=O)C(C)(C)C)C(F)(F)c1ccc2sc(C(=O)N[C@H]3CCCC[C@H]4CC[C@@H](C(=O)N5C[C@@H](C#N)[C@H](c6ccccc6)C5)N4C3=O)cc2c1` (single isomer, unassigned) [Compound 1012], which IC50 (PBMC, read-out: STAT6) is on record?
A: < 100 nM

Q: How did the IC50 (PBMC, read-out: STAT6) turn out when `COCCOCC(=O)SCCOP(=O)(OCCSC(=O)COCCOC)C(F)(F)c1ccc2ccc(C(=O)N[C@H]3CCCC[C@H]4CC[C@@H](C(=O)N5C[C@@H](C#N)[C@H](c6cc[nH]c(=O)c6)C5)N4C3=O)cc2c1` (single isomer, unassigned) [Compound 1013] was run?
A: 100 to 1000 nM

Q: `CC(C)(C)C(=O)SCCOP(=O)(OCCSC(=O)C(C)(C)C)C(F)(F)c1ccc2sc(C(=O)N[C@H]3CCC[C@H]4CC[C@@H](C(=O)N5C[C@@H](c6ccccc6)[C@H](C#N)C56CC6)N4C3=O)cc2c1` (single isomer, unassigned) [Compound 1080] was tested. Which IC50 (PBMC, read-out: STAT6) did it give?
A: < 100 nM

Q: `CC(C)(C)C(=O)SCCOP(=O)(OCCSC(=O)C(C)(C)C)C(F)(F)c1ccc2sc(C(=O)N[C@H]3CCC[C@H]4CC[C@@H](C(=O)N5C[C@H](c6ccccc6)[C@@H](C#N)C56CC6)N4C3=O)cc2c1` (single isomer, unassigned) [Compound 1081] was tested. Which IC50 (PBMC, read-out: STAT6) did it give?
A: < 100 nM
